assay: Inhibition of tubulin polymerization for 70 mins by microtubule polymerization assay; design: concentration or dose not given beside the values

Compound | inhibition
CCc1cc(-c2oncc2-c2ccc(OC)cc2)c(OCc2ccccc2)cc1OC | 79%
COc1ccc(-c2cnoc2-c2ccc(OCc3ccccc3)c(OCc3ccccc3)c2)cc1 | 80%
COc1ccc(-c2cnoc2-c2ccc(OC)c(OCc3ccccc3)c2)cc1 | 128%
CCc1cc(-c2oncc2-c2ccc(O)cc2)c(O)cc1O | 134%
COc1ccc(-c2cnoc2-c2ccc(O)cc2)cc1 | 80%
CCc1cc(-c2oncc2-c2ccc(O)cc2)c(O)cc1OC | 115%

Continued, values first:

inhibition | Compound
65% | COc1ccc(-c2cnoc2-c2ccc(O)c(O)c2)cc1
76% | COc1ccc(-c2cnoc2-c2cc(C)c(O)c(C)c2)cc1
50% | COc1ccc(-c2cnoc2-c2ccc(OC)c(O)c2)cc1
126% | COc1ccc(-c2cnoc2-c2cc(C)c(OCc3ccccc3)c(C)c2)cc1
52% | CCc1cc(-c2oncc2-c2ccc(OC)cc2)c(O)cc1OC
